{"source": "patent US20240041764A1", "about": "“Sustained-Release Oral Fosamprenavir Formulation for Treatment of Reflux” (The Medical College of Wisconsin, Inc., priority 2022, published 2024)", "key": {"[1]": {"tested_on": "patients with HEMII-pH testing-confirmed alkaline LPR", "details": "thrice daily post meal with anti-reflux diet; n=48; cited from earlier work"}, "[2]": {"target": "T1, porcine pepsin A (Sus scrofa, UniProt P00791)", "T1 construct": "purchased Worthington Biochemical Corporation", "T1 sequence (P00791 60-385)": "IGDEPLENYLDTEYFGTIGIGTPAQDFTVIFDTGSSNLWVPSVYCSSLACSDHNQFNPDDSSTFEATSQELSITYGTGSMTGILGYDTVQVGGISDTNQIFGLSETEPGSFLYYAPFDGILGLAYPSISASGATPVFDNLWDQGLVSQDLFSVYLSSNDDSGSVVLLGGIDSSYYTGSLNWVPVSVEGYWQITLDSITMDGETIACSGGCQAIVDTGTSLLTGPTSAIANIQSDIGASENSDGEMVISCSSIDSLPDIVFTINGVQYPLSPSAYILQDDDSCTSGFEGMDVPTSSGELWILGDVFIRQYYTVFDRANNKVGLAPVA", "assay": "competitive binding assay, fluorescence polarization with pepstatin-Alexa647", "details": "100 nM probe, 0.03 U/ul porcine pepsin A, 37.5% DMSO, 0.1 M HCl pH 1", "method": "To examine whether HIV protease inhibitors bound and inhibited pepsin, we developed assays based on fluorescence polarization which measures size-dependent molecular rotation thereby permitting detection of degradation, association and dissociation events^80. A competitive binding assay was designed employing pepstatin, an inhibitor of sub-nanomolar affinity^81. Pepstatin-Alexa647 was synthesized by dissolving 1 mg pepstatin A (Sigma-Aldrich) in a 50:50 mixture of dimethylformamide (DMF) and dimethylsulfoxide (DMS) followed by the addition of N,N,N′,N′-Tetramethyl-O—(N-succinimidyl)uronium tetrafluoroborate (0.6 mg) and trimethylamine (10 μL) DMF. The mixture was stirred for 1 hour, after which 1 mg Alexa Fluor 647 Cadaverine, Disodium Salt (ThermoFisher Scientific) was added. After 2 hours, the solvents were evaporated under high vacuum (35° C.) and residue partially dissolved in 10% methanol and transferred onto a C18 cartridge (Waters Corporation, Milford, MA). Increasing percentages of methanol were used for the elution. Pepstatin-Alexa647 eluted at 45% methanol. An enzymatic inhibition assay was designed using casein substrate.^82 Bovine alpha casein (Sigma-Aldrich, St. Louis, MO) was labeled with Alexa Fluor 647 Carboxylic Acid, Succinimidyl Ester (ThermoFisher Scientific, Waltham, MA) as described.^82 Briefly, the two were combined at 2.5 ug/mg label to protein ratio in 0.1M sodium bicarbonate for 15 minutes and labeled casein was separated from unbound label in a Sephadex G-25 (Sigma-Aldrich) column comprised of 90×5 mm packed beads in a glass Pasteur pipette, eluted with dPBS pH7.4 (ThermoFisher Scientific). The fast-moving band (casein-bound fluorophore) was collected in ˜0.4 ml volume. […]\n(§1) Assays were optimized using ranges of 0.3-1000 μM unlabeled pepstatin, 100-500 nM pepstatin-Alexa647 or casein-Alexa647 probe, 0.003-3 U/μl porcine pepsin (Worthington Biochemical Corporation, Lakewood, NJ), and 5-37.5% DMSO (HIV protease inhibitor diluent) in 0.1 M HCl, pH 1 with 0.01% v/v Tween-20 in 20 μl volumes in 384-well black optical plates (Nunc, Roskilde, DK) and read on a BioTek Cytation 5 (BioTek Instruments, Winooski, VT) with far red FP filter cube (excitation/emission 620/680 nm). […] Assays were performed twice with triplicate reactions read for five minutes and mean mP plotted against probe concentration (binding assay) or read at <2 minutes intervals over 30 minutes with mean mP of plotted over time (activity assay). Half maximal inhibitory concentration (IC50) of inhibitors were calculated from kinetic traces analyzed using an online tool (https://icekat.herokuapp.com/icekat)^83. mP was normalized to blank (absent inhibitor) to derive percent bound or activity."}, "[3]": {"target": "T2, porcine pepsin (Sus scrofa, UniProt P00791)", "T2 construct": "purchased Worthington Biochemical Corporation", "T2 sequence (P00791 60-385)": "as above", "assay": "peptic activity assay, fluorescence polarization with casein-Alexa647", "assay_type": "biochemical", "details": "for inhibited pepsin (peptic activity): 200 nM probe, 0.01 U/μL pepsin, 5% DMSO, 0.1 M HCl pH 1", "method": "To examine whether HIV protease inhibitors bound and inhibited pepsin, we developed assays based on fluorescence polarization which measures size-dependent molecular rotation thereby permitting detection of degradation, association and dissociation events^80. A competitive binding assay was designed employing pepstatin, an inhibitor of sub-nanomolar affinity^81. Pepstatin-Alexa647 was synthesized by dissolving 1 mg pepstatin A (Sigma-Aldrich) in a 50:50 mixture of dimethylformamide (DMF) and dimethylsulfoxide (DMS) followed by the addition of N,N,N′,N′-Tetramethyl-O—(N-succinimidyl)uronium tetrafluoroborate (0.6 mg) and trimethylamine (10 μL) DMF. The mixture was stirred for 1 hour, after which 1 mg Alexa Fluor 647 Cadaverine, Disodium Salt (ThermoFisher Scientific) was added. After 2 hours, the solvents were evaporated under high vacuum (35° C.) and residue partially dissolved in 10% methanol and transferred onto a C18 cartridge (Waters Corporation, Milford, MA). Increasing percentages of methanol were used for the elution. […] An enzymatic inhibition assay was designed using casein substrate.^82 Bovine alpha casein (Sigma-Aldrich, St. Louis, MO) was labeled with Alexa Fluor 647 Carboxylic Acid, Succinimidyl Ester (ThermoFisher Scientific, Waltham, MA) as described.^82 Briefly, the two were combined at 2.5 ug/mg label to protein ratio in 0.1M sodium bicarbonate for 15 minutes and labeled casein was separated from unbound label in a Sephadex G-25 (Sigma-Aldrich) column comprised of 90×5 mm packed beads in a glass Pasteur pipette, eluted with dPBS pH7.4 (ThermoFisher Scientific). The fast-moving band (casein-bound fluorophore) was collected in ˜0.4 ml volume. Concentration of resultant probe (casein-Alexa647 in PBS-azide) was estimated via spectrophotometry using Beer's law (Implen Nanophotometer, Implen, Inc. Westlake Village, CA).\nas §1, with “nm). Unlabeled pepstatin dose-response curves were used to ensure that the assays were responsive to pepsin inhibition.” for “nm).”"}, "[4]": {"details": "in vivo; cited from earlier work"}, "[5]": {"tested_on": "pepsin", "details": "cited from earlier work"}, "[6]": {"details": "cited from earlier work"}, "[7]": {"tested_on": "pepsin", "details": "cited from earlier work", "remark": "listed apart in the source"}}, "note": "“Also recorded” adds a separate entry of the source. Square brackets hold non-standard residues; d marks the D form. Peptide text beside a SMILES is read from it. * marks the point of attachment. Sta = CC(C)C[C@H](N)[C@@H](O)CC(=O)O; Isovaleryl = CC(C)CC(=O)*", "data": [{"compound": "O.O=S(=O)([O-])[O-].O=S(=O)([O-])[O-].[Al+3].[Al+3].[Al+3].[Al+3].[Al+3].[Mg+2].[Mg+2].[Mg+2].[Mg+2].[Mg+2].[Mg+2].[Mg+2].[Mg+2].[Mg+2].[Mg+2].[OH-].[OH-].[OH-].[OH-].[OH-].[OH-].[OH-].[OH-].[OH-].[OH-].[OH-].[OH-].[OH-].[OH-].[OH-].[OH-].[OH-].[OH-].[OH-].[OH-].[OH-].[OH-].[OH-].[OH-].[OH-].[OH-].[OH-].[OH-].[OH-].[OH-].[OH-]", "note": "[magaldrate]", "values": [{"measurement": "voice quality (GRBAS dysphonia and roughness, jitter, shimmer, noise to harmonic ratio)", "setting": "[1]", "value": "improved voice quality"}]}, {"compound": "CC(C)c1nc(CN(C)C(=O)N[C@H](C(=O)N[C@@H](Cc2ccccc2)C[C@H](O)[C@H](Cc2ccccc2)NC(=O)OCc2cncs2)C(C)C)cs1", "note": "[ritonavir, 1,3-thiazol-5-ylmethyl N-[(2S,3S,5S)-3-hydroxy-5-[[(2S)-3-methyl-2-[[methyl-[(2-propan-2-yl-1,3-thiazol-4-yl)methyl]carbamoyl]amino]butanoyl]amino]-1,6-diphenylhexan-2-yl]carbamate]", "values": [{"measurement": "bound pepsin (competitive binding)", "setting": "[2]", "value": "low micromolar"}, {"measurement": "inhibited pepsin (peptic activity)", "setting": "[3]", "value": "low micromolar"}, {"measurement": "side effects", "setting": "[4]", "value": "minimal side effects (diarrhea, nausea and vomiting)"}]}, {"compound": "CC(C)CC(=O)N[C@H](C(=O)N[C@H](C(=O)N[C@@H](CC(C)C)[C@@H](O)CC(=O)N[C@@H](C)C(=O)N[C@@H](CC(C)C)[C@@H](O)CC(=O)O)C(C)C)C(C)C", "note": "[pepstatin] (Isovaleryl-VV[Sta]A[Sta]-OH)", "values": [{"measurement": "affinity / potency as pepsin inhibitor", "setting": "[5]", "value": "potent pepsin inhibitor; also recorded: sub-nanomolar"}, {"measurement": "water solubility", "setting": "[6]", "value": "poor water-solubility; also recorded: poor water-soluble characteristics"}, {"measurement": "effect on pepsin-mediated damage and inflammation", "setting": "[7]", "value": "abrogate this damage and inflammation"}]}, {"compound": "CC(C)c1cc2c(cc1S(=O)(=O)O)[C@@]1(C)CCC[C@@](C)(C(=O)O)[C@@H]1CC2", "note": "[ecabet sodium]", "values": [{"measurement": "effect on pepsin-mediated damage and inflammation", "setting": "[7]", "value": "abrogate this damage and inflammation"}]}, {"compound": "CC(C)CN(C[C@@H](O)[C@H](Cc1ccccc1)NC(=O)O[C@H]1CCOC1)S(=O)(=O)c1ccc(N)cc1", "note": "[amprenavir, [(3S)-oxolan-3-yl] N-[(2S,3R)-4-[(4-aminophenyl)sulfonyl-(2-methylpropyl)amino]-3-hydroxy-1-phenylbutan-2-yl]carbamate]", "values": [{"measurement": "bound pepsin (competitive binding)", "setting": "[2]", "value": "low micromolar"}, {"measurement": "inhibited pepsin (peptic activity)", "setting": "[3]", "value": "low micromolar"}, {"measurement": "IC50 for pepsin", "setting": "[3]; in vitro binding and inhibition assays, IC50 from kinetic traces", "value": "low micromolar range"}, {"measurement": "side effects", "setting": "[4]", "value": "minimal side effects (diarrhea, nausea and vomiting)"}]}, {"compound": "anthocyanin", "values": [{"measurement": "effect on pepsin-mediated damage and inflammation", "setting": "[7]", "value": "abrogate this damage and inflammation"}]}]}
